Patent US11999770B2, “Peptides and nanoparticle formulations thereof” (University of Bradford, priority 2016, dated 2024)
Values belong to the sequence of their own block, whether it stands above or below them.

What was measured:
[1] = test system: MDA-MB231 migration; assay: MDA-MB231 migration; format: cell-based, human; conditions: loaded nanoparticles
[2] = test system: MDA-MB231 invasion; assay: MDA-MB231 invasion; format: cell-based, human; conditions: loaded nanoparticles
[3] = test system: MDA-MB-231 cells; assay: Cytotoxicity / cell viability (MTT assay); format: cell-based, human; conditions: for activity against the proliferation of MDA MB-231 triple negative breast cancer cells: dosed as nanoparticles
Experimental: Cytotoxicity of an optimised peptide NP formulation (F18) containing peptide of SEQ ID NO: 5 was measured by assessing cell viability (MTT assay). The MDA-MB-231 cells were seeded in 24-well plates (Nalgen Nunc International, Ochester, NY) at a density of 5×10^4 cells per well and incubated for 24 hours to allow for 60-70% confluency and sufficient adhesion. The cells were treated with different concentrations of the peptide-loaded NP, free peptide (SEQ ID NO: 5) and blank NP. After 24, 48, 72 and 96 hours, the treated cells were washed with 500 μl PBS, and 500 μl of 15% MTT dye solution in complete media added to each well. The plates were incubated at 37° C. and 5% CO2 for an additional 3 hours. The supernatant was then discarded, 500 μl DMSO added and the solution vigorously mixed. The optical density of each well was measured at 570 nm (reference wavelength 630 nm) in a microplate reader (Fluostar Omega, BMG Lab Tech GMBH, Germany). This experiment was performed in triplicate and repeated three times. Mean values±SD for each concentration was determined. Percentage cell viability was determined as the ratio of absorbance (570 nm) in treated cells relative to the absorbance in control cells (570 nm). The absorbance of the untreated cells was set at 100%. The IC50 was defined as the concentration of sample needed to reduce the signal by 50% relative to the control.

[4] = target: T1, RanGDP-RCC1 protein-protein interaction (Homo sapiens, UniProt P18754); assay: AlphaScreen assay; format: binding; conditions: in the absence of GTP
T1 sequence (P18754 1-421): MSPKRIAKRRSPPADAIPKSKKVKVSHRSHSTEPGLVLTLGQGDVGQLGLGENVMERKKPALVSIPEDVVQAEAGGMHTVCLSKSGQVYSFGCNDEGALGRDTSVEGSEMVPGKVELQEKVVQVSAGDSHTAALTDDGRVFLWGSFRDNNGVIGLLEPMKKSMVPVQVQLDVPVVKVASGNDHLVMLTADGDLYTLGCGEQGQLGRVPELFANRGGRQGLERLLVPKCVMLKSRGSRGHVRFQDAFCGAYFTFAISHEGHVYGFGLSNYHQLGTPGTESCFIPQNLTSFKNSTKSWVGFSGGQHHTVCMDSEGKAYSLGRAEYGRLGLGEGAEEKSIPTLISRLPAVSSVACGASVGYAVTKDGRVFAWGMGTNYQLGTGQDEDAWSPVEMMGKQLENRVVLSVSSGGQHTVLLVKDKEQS
Source text: The direct effect of the inhibitor of SEQ ID NO: 5 on the RanGDP-RCC1 interaction was also studied by AlphaScreen™ assay. This assay employs bead-based chemistry used to study biomolecular interactions in a microplate format, the acronym ALPHA stands for Amplified Luminescent Proximity Homogeneous Assay. In brief, the system uses two photosensitive bead types, a first donor bead that can absorb light from an external light source and a second acceptor bead that can first absorb energy from the donor bead if the beads are in close proximity and then in turn emit light. The Ran protein was attached to the donor bead and the RCC1 protein was attached to the acceptor bead. In the absence of peptide inhibitor the interaction of Ran and RCC1 hold the beads in close proximity and the emission from the acceptor bead is detectable.

[5] = test system: A549 lung cancer cells; assay: A549 lung cancer cell viability; format: cell-based, human; conditions: dosed as nanoparticles
[6] = test system: MDA-MB-231 cells; assay: Cell cycle analysis (PI flow cytometry); format: cell-based, human
Experimental: To determine the effect of peptide (SEQ ID NO: 5)-loaded NP on cell growth, cultured cells were treated with the same doses of free peptide and peptide-loaded NP as used in the cell viability assay. After 24 and 48 hours of treatment, cells were suspended in PBS and fixed by addition of 70% ice-cold methanol. Cells were treated by adding RNase (1.0 μg ml^−1) to the samples and re-suspending in propidium iodide (PI) stain (5.0 μg ml^−1). PI fluorescence intensity was determined using flow cytometry through a FL-2A filter at 585 nm. Flow-cytometric data were analysed using Cyflogic (v.1.2.1) software. Quantification of apoptotic cells was determined by flow cytometry as the percentage of cells in the sub-G1 region (hypodiploidy) in cell cycle analysis as previously described [PLoS ONE, 6 (2011) e23640].

[7] = target: T2, RanGDP-RCC1 protein-protein interaction (Homo sapiens, UniProt P18754); assay: Ran activation assay (MDA MB-231 cell lysate, RanBP1 agarose beads); format: biochemical
T2 construct: endogenous in cells; host or cells: MDA MB-231 cell lysate
T2 sequence (P18754 2-421 limits assumed): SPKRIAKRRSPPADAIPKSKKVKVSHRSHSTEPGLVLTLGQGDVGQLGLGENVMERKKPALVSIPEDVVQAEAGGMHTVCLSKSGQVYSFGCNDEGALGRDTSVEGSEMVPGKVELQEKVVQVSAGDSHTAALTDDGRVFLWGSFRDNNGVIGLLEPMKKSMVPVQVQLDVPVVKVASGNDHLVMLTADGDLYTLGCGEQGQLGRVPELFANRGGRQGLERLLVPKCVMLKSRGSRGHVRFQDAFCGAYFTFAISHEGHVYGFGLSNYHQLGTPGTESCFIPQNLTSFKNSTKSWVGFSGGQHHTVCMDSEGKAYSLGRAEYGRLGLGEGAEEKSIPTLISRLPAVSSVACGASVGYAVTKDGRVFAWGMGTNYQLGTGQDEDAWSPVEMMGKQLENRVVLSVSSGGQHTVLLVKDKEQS
Experimental: Lane 1 is positive control for activated Ran complex & Lane 2, MDA MB-231 cell lysate, Lane 3 MDA MB-231 cell lysate loaded with GDP and incubated (negative control) with RanBP1 Agarose beads. Lane 4, MDA MB-231 cell lysate loaded with GTPyS (positive control) incubated with RanBP1 Agarose beads. Lane 5, MDA MB231 cell lysate treated by N-Terminal peptide, Lane 6, MDA MB-231 cell lysate loaded with GD and treated with N-terminal peptide SEQ ID NO: 5, Lane 7, MDA MB231 cell lysate loaded with GTPyS and treated with N-terminal peptide SEQ ID NO: 5 incubated with RanBP1 Agarose beads. […] It can therefore be seen that the N-terminal peptide SEQ ID NO: 5 disturbs the interaction between Ran-RCC1 by direct binding to RCC1.
In this figure, Lane 1 is positive control (activated Ran protein); Lane 2, MDA MB-231 cell lysate; Lane 3 MDA MB-231 cell lysate loaded with GDP and incubated (negative control) with RanBP1 Agarose beads; Lane 4, MDA MB-231 cell lysate loaded with GTPyS (positive control) incubated with RanBP1 Agarose beads; Lane 5, MDA MB-231 cell lysate treated by peptide of SEQ ID 5; Lane 6, MDA MB-231 cell lysate loaded with GD and treated with peptide of SEQ ID 5; and Lane 7, MDA MB-231 cell lysate loaded with GTPyS and treated with peptide of SEQ ID 5 incubated with RanBP1 Agarose beads.

[8] = Isoelectric point of the peptide; format: physicochemical

inhibition of complex formation [4]: 45%
Sequence: CAQGEPQVQFK [SEQ ID NO: 5]
effect on MDA-MB231 migration [1]: inhibitory effect
effect on MDA-MB231 invasion [2]: inhibitory effect
cytotoxic action (cell viability) ([3]; 2, 4 and 8 μM, 24, 48, 72 and 96 hours): no significant cytotoxicity
activity against the proliferation of MDA MB-231 triple negative breast cancer cells [3]: significant activity
activity against the proliferation of A549 lung cancer cells [5]: significant activity
growth rate of the cells [6]: not affected
effect on Ran-GDP/RCC1 interaction (activated Ran pull-down) [7]: disturbs the interaction between Ran-GDP and RCC1
isoelectric point (pI) [8]: around 6.0

Sequence: CQYEHDLEVAQTTALP [SEQ ID NO: 7, Ran positions 196 to 210 with N-terminal Cys]
activity against the proliferation of MDA MB-231 triple negative breast cancer cells [3]: significant activity
activity against the proliferation of A549 lung cancer cells [5]: significant activity

Sequence: CVDIKDRKVKAKS [SEQ ID NO: 6, Ran positions 124 to 135 with N-terminal Cys]
activity against the proliferation of MDA MB-231 triple negative breast cancer cells [3]: significant activity
activity against the proliferation of A549 lung cancer cells [5]: significant activity
